From patent publication US12048689B2, “Pharmaceutical composition for preventing or treating inflammatory bowel disease acting as a functional antagonist for S1PR1 and S1PR4” (NEXTGEN BIOSCIENCE CO., LTD., priority 2022, dated 2024)
“And” between values parts separate entries of the source, which are not always exact repeats. Equal values may be shown once. Read-outs that look alike come from different tables or passages of the source.

Tests used:
[1] = tested on: DSS-induced colitis mice; assay: Dextran sulfate sodium (DSS)-induced colitis model, disease activity index; type: in vivo
Protocol: The effect of NXC736 for inflammatory bowel disease was evaluated using a dextran sulfate sodium (DSS)-induced colitis model. In the mouse model, inflammatory bowel disease was induced by administering DSS to mice in drinking water at a concentration of 2.5%. Treatment groups consisted of a test group administered NXC736, a positive control administered ozanimod or methotrexate (MTX), a vehicle group and a normal control, and each group had n=10. In the model in which inflammatory bowel disease was induced, NXC736, which is the compound of the present invention, was orally administered at a dose of 5 and 10 mg/kg once a day for 7 days, ozanimod as a positive control material was orally administered at 5 mg/kg once a day, and methotrexate (MTX) as a positive control material was intraperitoneally administered at 3 mg/kg three times a week.
FIG. 3 illustrates the disease activity index (DAI) of DSS-induced colitis mice and the area under the disease activity index curve (AUC) of DSS-induced colitis mice. […] The calculation criteria for DAI are shown in the following Table 1, and the DAI was evaluated on days 0, 1, 2, 3, 4, 5, 6, 7, and 8.

[2] = Cardiovascular system in beagle dogs (telemetry heart rate, general symptoms); type: in vivo; settings: oral 12.5, 25 and 50 mg/kg
Protocol: NXC736 was orally administered to four male beagle dogs under unanesthetized and unrestrained conditions with a remote transmitter inserted. Thereafter, the effect of NXC736 on the cardiovascular system was evaluated by measuring the heart rate for four beagle dogs, and it was confirmed with the naked eye whether abnormal symptoms appeared.
In this experiment, the experimental material was administered to each of the four beagle dogs over four steps. A 0.5% MC aqueous solution, which is an excipient, was administered as a control material in the first administration step (NXC7365 at 0 mg/kg), NXC736 at 12.5 mg/kg was administered in the second administration step, NXC736 at 25 mg/kg was administered in the third administration step, and NXC736 at 50 mg/kg was administered in the fourth administration step. The 1st to 4th administrations were performed at intervals of 1 week. In addition, at 0 hours before administration of the experimental material and at 0.5 hours, 1 hour, 2 hours, 3 hours, 4 hours, 6 hours, 8 hours, 12 hours and 24 hours after administration of the test material, the beagle dog's heart rate were measured.

[3] = tested on: T cells, CD4 T cells, and CD8 T cells; assay: Suppressive effect on mouse immune cells (FACS of peripheral blood and bone marrow after oral administration); type: in vivo; settings: mice; for Cell number in bone marrow, percentage of control based on 0 time: listed as NXC7363, 3 mg/kg
Protocol: To confirm whether NXC736, which acts on the S1P receptor, also has an effect on lymphocyte reduction, the effect of NXC736 on immune cells was evaluated. After oral administration of NXC736 at 3 mg/kg/day to mice, changes in lymphocytes in the peripheral blood (PB) stream and bone marrow (BM) were classified for T cells, CD4T cells, and CD8T cells, and FACS analysis was performed at 0, 4, 8, 12, 24, and 36 hours after the administration of a test material. A cell number was measured and shown as a percentage (%) of a control based on 0 time.

[4] = tested on: T cells, CD4 T cells, and CD8 T cells; assay: Suppressive effect on rat immune cells (FACS of peripheral blood and bone marrow after oral administration); type: in vivo; settings: SD rats
Protocol: To evaluate the effect of NXC736 on rat immune cells, after oral administration of NXC736 at 10 mg/kg/day to SD rats, changes in lymphocytes in the peripheral blood (PB) stream and bone marrow (BM) were classified for T cells, CD4 T cells, and CD8 T cells, and FACS analysis was performed at 0, 4, 8, 12, 24, 36, and 48 hours after the administration of a test material. A cell number was measured and shown as a percentage (%) of a control based on 0 time, and the numbers of T cells, CD4 T cells, and CD8 T cells were measured and shown as a percentage (%) of a control based on 0 time.

[5] = target: hERG potassium ion channels (Homo sapiens, UniProt Q12809)
[6] = oral 3 mg/kg, peripheral blood, 4 hours, 3 mg/kg

Chain of hERG potassium ion channels (Q12809 whole entry): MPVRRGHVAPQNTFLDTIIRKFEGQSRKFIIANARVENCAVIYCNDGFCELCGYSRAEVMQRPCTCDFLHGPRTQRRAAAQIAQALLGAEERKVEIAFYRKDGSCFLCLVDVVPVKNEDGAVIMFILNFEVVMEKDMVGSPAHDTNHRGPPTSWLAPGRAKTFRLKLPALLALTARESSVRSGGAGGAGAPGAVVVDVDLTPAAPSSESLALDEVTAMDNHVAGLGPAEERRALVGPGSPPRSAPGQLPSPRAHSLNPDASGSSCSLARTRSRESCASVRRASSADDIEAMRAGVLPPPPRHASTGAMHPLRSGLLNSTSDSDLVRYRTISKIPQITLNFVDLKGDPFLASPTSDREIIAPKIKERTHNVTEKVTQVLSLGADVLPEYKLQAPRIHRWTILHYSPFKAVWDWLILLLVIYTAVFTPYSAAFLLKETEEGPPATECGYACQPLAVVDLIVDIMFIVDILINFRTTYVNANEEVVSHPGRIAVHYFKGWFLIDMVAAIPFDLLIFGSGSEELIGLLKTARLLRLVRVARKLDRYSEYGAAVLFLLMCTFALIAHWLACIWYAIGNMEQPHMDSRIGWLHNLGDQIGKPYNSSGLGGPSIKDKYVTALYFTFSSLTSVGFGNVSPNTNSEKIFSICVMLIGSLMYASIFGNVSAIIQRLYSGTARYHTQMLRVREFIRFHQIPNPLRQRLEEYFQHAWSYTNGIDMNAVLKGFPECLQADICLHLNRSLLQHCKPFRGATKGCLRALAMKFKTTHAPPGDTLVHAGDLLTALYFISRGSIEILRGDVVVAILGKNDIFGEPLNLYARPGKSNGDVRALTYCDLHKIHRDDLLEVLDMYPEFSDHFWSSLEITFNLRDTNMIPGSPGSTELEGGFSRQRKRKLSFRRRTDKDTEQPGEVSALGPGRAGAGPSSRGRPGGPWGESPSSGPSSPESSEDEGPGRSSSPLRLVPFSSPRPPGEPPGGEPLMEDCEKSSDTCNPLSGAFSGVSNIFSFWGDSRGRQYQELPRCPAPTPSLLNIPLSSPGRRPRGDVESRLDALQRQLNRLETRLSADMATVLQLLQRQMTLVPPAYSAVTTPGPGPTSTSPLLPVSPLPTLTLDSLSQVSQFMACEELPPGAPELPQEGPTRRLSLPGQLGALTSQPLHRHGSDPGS

For `CN(Cc1cnc2nc(N)nc(N)c2n1)c1ccc(C(=O)N[C@@H](CCC(=O)O)C(=O)O)cc1` [MTX, methotrexate, reference compound], the “Disease activity index (DAI) and AUC compared to negative control (vehicle)” value (from here on “Disease activity index (DAI) and AUC”) ([1]; MTX 3 mg/kg intraperitoneally three times a week) was “statistically significant reduction effect”.

For `CCCCCCCCCCn1cc(CCC(N)(CO)CO)nn1` [NXC736, 2-amino-2-(2-(1-decyl-1H-1,2,3-triazol-4-yl)ethyl)propane-1,3-diol], the “General symptoms observed with the naked eye” value [2] was “no abnormal symptoms”, the “Change in heart rate” value ([2]; 0 to 24 hours) was “no change in heart rate” and the “Cell number in bone marrow, percentage of control based on 0 time” value ([3]; 3 mg/kg, 4 hours after administration) was 135% and 120%. The “Cell number in bone marrow, percentage of control based on 0 time” value ([3]; 3 mg/kg, 24 hours after administration) was 131% and 118%, the “Time until which the suppressive effect on T cell number was maintained to some extent” value ([3]; 3 mg/kg, reduced from 4 hours, then recovered) was 24 h and the “Time until which the reduction of cell number in peripheral blood was maintained” value ([3]; oral 3 mg/kg, peripheral blood) was 12 h. The “CD4 T cell number in peripheral blood, percentage of control based on 0 time” value [3, 6] was 16.4% and 17.6%, the “CD8 T cell number in peripheral blood, percentage of control based on 0 time” value [3, 6] was 5.9% and 9.3% and the “T cell number in peripheral blood, percentage of control based on 0 time” value [3, 6] was 40.6% and 41.6%. The “Cell number level recovered in peripheral blood, percentage of control” value ([3]; oral 3 mg/kg, peripheral blood, 36 hours) was 88.9%, the “Clinical indicators (body weight loss, stool concentration, intestinal bleeding) compared to ozanimod” value ([1]; NXC736 5 mg/kg and 10 mg/kg vs ozanimod 5 mg/kg) was “equivalent values or more” and the “Disease activity index (DAI) and AUC” value ([1]; NXC736 5 mg/kg orally once a day for 7 days) was “statistically significant reduction effect”. For the same compound, the “Disease activity index (DAI) and AUC” value ([1]; NXC736 10 mg/kg orally once a day for 7 days) was “statistically significant reduction effect”, the “Time until which the suppressive effect on T cells was maintained” value ([4]; oral 10 mg/kg, peripheral blood) was 24 h and the “Change of cell number in bone marrow” value ([4]; oral, bone marrow) was “no change or a tendency to increase”. The “Suppressive effect on number of T cells in peripheral blood” value ([4]; oral, peripheral blood, dose-dependent (doses of the three values not given)) was 70% and 80% and 87%, the Hill coefficient [5] was 1.527 and the “Compensated suppression rate of hERG channel currents” value (shortened to “Compensated suppression rate”) ([5]; 1 μM) was 9.94±1.96%. The “Compensated suppression rate” value ([5]; 3 μM) was 13.98±4.48%, the “Compensated suppression rate” value ([5]; 10 μM) was 35.03±12.09% and the “Compensated suppression rate” value ([5]; 30 μM) was 82.62±7.31%.

With `CC(C)Oc1ccc(-c2nc(-c3cccc4c3CC[C@@H]4NCCO)no2)cc1C#N` [ozanimod, reference compound] the “Disease activity index (DAI) and AUC” value ([1]; ozanimod 5 mg/kg orally once a day) was “statistically significant reduction effect”.
